According to article PMC4753070 (Bioorganic & medicinal chemistry letters, 2016):
“Also recorded” adds a separate entry of the source.

Key:
[1] = tested on: histone H3K9 acetylation in mouse forebrain primary neuronal cultures; assay: Neuronal histone acetylation assay, H3K9ac immunofluorescence; type: cell-based; details: 1 and 10 μM, 24 hrs, relative to SAHA
[2] = tested on: histone H4K12 acetylation in mouse forebrain primary neuronal cultures; assay: Neuronal histone acetylation assay, H4K12ac immunofluorescence; type: cell-based; details: 1 and 10 μM, 24 hrs, relative to SAHA
[3] = tested on: recombinant human HDAC1-3; assay: In vitro HDAC1-3 inhibition, potency comparison across the three isoforms; type: biochemical
[4] = mouse, intraperitoneal 25 mg/kg; cited from earlier work
HDAC5 = HDAC5 (Homo sapiens, UniProt Q9UQL6); assay: In vitro HDAC5; type: biochemical
HDAC5, sequence (Q9UQL6 whole entry, species assumed): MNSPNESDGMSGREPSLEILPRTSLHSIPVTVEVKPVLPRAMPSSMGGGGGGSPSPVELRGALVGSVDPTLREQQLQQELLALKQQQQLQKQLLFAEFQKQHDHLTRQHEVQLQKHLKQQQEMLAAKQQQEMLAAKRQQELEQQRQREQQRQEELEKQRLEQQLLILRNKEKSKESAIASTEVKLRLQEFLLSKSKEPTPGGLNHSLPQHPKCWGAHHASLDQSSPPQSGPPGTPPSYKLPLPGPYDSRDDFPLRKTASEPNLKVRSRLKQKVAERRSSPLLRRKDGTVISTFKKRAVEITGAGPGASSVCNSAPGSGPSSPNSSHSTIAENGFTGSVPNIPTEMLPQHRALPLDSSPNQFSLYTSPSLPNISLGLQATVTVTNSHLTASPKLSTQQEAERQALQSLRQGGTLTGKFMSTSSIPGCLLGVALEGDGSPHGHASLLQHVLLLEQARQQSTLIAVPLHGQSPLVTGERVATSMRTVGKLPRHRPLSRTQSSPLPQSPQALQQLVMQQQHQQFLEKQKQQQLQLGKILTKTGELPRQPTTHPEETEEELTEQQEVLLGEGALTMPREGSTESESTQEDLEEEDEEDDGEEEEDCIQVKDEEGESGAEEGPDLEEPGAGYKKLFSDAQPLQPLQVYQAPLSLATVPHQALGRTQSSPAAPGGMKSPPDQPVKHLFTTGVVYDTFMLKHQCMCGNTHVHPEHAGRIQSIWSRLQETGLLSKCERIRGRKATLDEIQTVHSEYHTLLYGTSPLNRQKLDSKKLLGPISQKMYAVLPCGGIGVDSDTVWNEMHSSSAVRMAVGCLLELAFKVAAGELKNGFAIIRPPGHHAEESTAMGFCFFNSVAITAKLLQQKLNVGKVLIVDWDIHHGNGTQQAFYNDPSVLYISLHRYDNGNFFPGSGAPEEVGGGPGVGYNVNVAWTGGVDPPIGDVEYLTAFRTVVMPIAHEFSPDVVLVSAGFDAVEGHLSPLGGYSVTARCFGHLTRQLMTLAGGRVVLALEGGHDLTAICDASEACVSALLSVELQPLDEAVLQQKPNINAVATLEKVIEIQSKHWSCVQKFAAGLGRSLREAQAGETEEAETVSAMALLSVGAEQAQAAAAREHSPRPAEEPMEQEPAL

[5] = Mouse plasma pharmacokinetics and brain-to-plasma ratio; type: in vivo

Structure (SMILES) | induction of histone H3K9 acetylation (H3K9ac) [1] | induction of histone H4K12 acetylation (H4K12ac) [2] | further results
NNC(=O)CCCCC(=O)NO [Compound 3a] | No induction | No induction | 
NNC(=O)CCCCCC(=O)NO [Compound 3b] | No induction | No induction | 
NNC(=O)CCCCCCC(=O)NO [Compound 7] | No induction | No induction | 
O=C(CCCCC(=O)N/N=C/c1ccc(-c2ccccc2)cc1)NO [Compound 9a] |  |  | fold increase in IC50's over those of crebinostat (9b) ([3]; HDAC1, 2 or 3): approximately 20 fold
O=C(CCCCCC(=O)N/N=C/c1ccc(-c2ccccc2)cc1)NO [Compound 9b, crebinostat] | greater increases; also recorded: more effective | greater increases; also recorded: more effective | fold reduction in IC50 versus SAHA ([3]; HDAC1, 2 or 3): > 5 fold; brain Cmax [4]: 60 nM; activity toward HDAC5 (HDAC5): no activity
O=C(CCCCCCC(=O)N/N=C/c1ccc(-c2ccccc2)cc1)NO [Compound 9c] | greater increases | greater increases | fold improved potency for inhibiting HDAC1-3 versus crebinostat (9b) ([3]; HDAC1-3, biochemical reaction): ~ 2 fold
O=C(CCCCCC(=O)N/N=C/c1ccc(-c2cccnc2)cc1)NO [Compound 9f, neurinostat] | most potent | most potent | activity toward HDAC5 (HDAC5): no activity; plasma maximum concentration ([5]; intraperitoneal 25 mg/kg, peripheral blood): 1.9 µM; brain-to-plasma ratios relative to those measured for crebinostat (9b) ([5]; time points 0.5, 1 and 2 hours): about twice
COc1ccc(Br)c(/C=N/NC(=O)CCCCCC(=O)NO)c1 [Compound 9j] | more effective | more effective | 
COc1cc(O)cc(OC)c1/C=N/NC(=O)CCCCCC(=O)NO [Compound 9k] | least potent | least potent | 
